From patent US12582667B2, “Compositions and methods to treat metastatic gastrointestinal cancer” (The Rockefeller University, priority 2019, dated 2026)

Legend:
CRC cells [1] = assay: In vitro hypoxia cell growth assay with leflunomide; assay type: cell-based, human; details: for impairment of proliferation, hypoxia versus normoxia: hypoxia compared with normoxia
Procedure: In Vitro Hypoxia Cell Growth Assays
Lvm3b cells or LS174T cells were grown under normoxia for 24 hours followed by incubation for 5 days under 0.5% oxygen and then counted using the Sceptor 2.0 automated Cell Counter (Millipore).
Dihydroorotate Dehydrogenase (DHODH) is a key enzyme in the metabolic pathway that […] dihydroorotate to orotate, which is ultimately converted to the pyrimidine nucleotides UTP and CTP. To further confirm that pyrimidine biosynthesis promotes CRC hypoxic growth, CRC growth upon DHODH inhibition was assessed.

[2] = system: two distinct CRC populations; assay: Primary tumor growth of CRC populations under leflunomide; assay type: in vivo; details: leflunomide treatment
Lvm3b cells [3] = assay: Lvm3b liver metastatic colonization in athymic nude mice; assay type: in vivo, mouse
Procedure: FIGS. 3A and 3B are a set of diagrams showing the effects of the DHODH inhibitor in inhibiting liver metastatic colonization. […] The mice were imaged every week. Firefly luciferase bioluminescent images are shown (p<0.0001, Student's t-test).
(§1) All animal work was conducted in accordance with a protocol approved by the Institutional Animal Care and Use Committee (IACUC) at The Rockefeller University and Memorial Sloan Kettering Cancer Center. […] For functional studies of PCK1, colorectal cancer cells (SW480 or LS174T) that had been stably transduced with a luciferase reporter (Ponomarev et al., 2004) were subjected to portal circulation injection in NSG mice; after two minutes, a splenectomy was performed. For functional and pharmacology studies of DHODH, colorectal cancer cells (Lvm3b) that had been stably transduced with a luciferase reporter were subjected to portal circulation injection in athymic nude mice; after two minutes, a splenectomy was performed. Mice were imaged weekly; experiments were terminated when the luciferase signal had saturated or the mice were too ill, whichever occurred first.
Chow was removed from cages four hours prior to injection of LS174T cells. Gavage with either 3-MPA (200 mg/kg in aqueous solution) or placebo was performed one hour prior to the injection of LS174T cells. 1×10^6 LS174T cells were injected into the portal systemic circulation as described in the Animals section above. Chow was returned to cages after injection. On day 1, chow was removed from cages; 3-MPA or placebo was administered via gavage four hours post-chow removal. Chow was returned to cages four hours after drug administration. Mice were imaged bi-weekly. […] An equivalent volume of DMSO was intraperitoneally injected every day to the control cohort.
To directly test this, highly metastatic LVM3b CRC cells of DHODH were depleted.

Solubility of β-GPA = assay type: physicochemical
Lvm3b cells [4] = details: K. Bracht, et al. Br J Cancer 103, 340-346 (2010); cited from earlier work
HS746T cells = assay: HS746T subcutaneous tumor growth in NSG mice; assay type: in vivo, mouse; details: uridine administration, HS746T tumor (FIG. 4C)
Procedure: MPK: mg/kg body weight of mouse. Tumor size was measured by a digital caliper, and tumor volume was calculated as volume=[…].
Cg-Prkdc^scid Il2rg^tm1Wjl/SzJ (Nod-Scid-Gamma; NSG) mice (n=4 per each cohort).

GAS HI tumor = assay: GAS HI patient-derived tumor growth in athymic nude mice; assay type: in vivo, mouse; details: uridine administration, patient-derived tumor (FIG. 5B; text says FIGS. 5A and 5B)
CRC cells [5] = assay: Uridine rescue of hypoxic growth of PCK1 depleted CRC cells; assay type: cell-based, human; details: uridine supplementation, hypoxia
Procedure: In Vitro Hypoxia Cell Growth Assays Lvm3b cells or LS174T cells were grown under normoxia for 24 hours followed by incubation for 5 days under 0.5% oxygen and then counted using the Sceptor 2.0 automated Cell Counter (Millipore). The above findings reveal that liver metastatic CRC cells enhance pyrimidine levels and that PCK1 drives pyrimidine nucleotide levels under hypoxia. […] To directly test this, whether the growth defect of PCK1 depletion upon hypoxia could be rescued by the pyrimidine nucleoside uridine was determined. […] The results reveal PCK1 induction to be a mechanism employed by CRC cells to enhance pyrimidine nucleotide levels under hypoxia to promote growth.

CRC cells [6] = assay: Liver colonization after portal circulation injection of 3-MPA pre-treated CRC cells; assay type: in vivo, mouse; details: cells pre-treated in vitro for 24 hours, then portal circulation injection; p=0.01
Procedure: as §1
Due to the strong reduction in mCRC liver colonization observed upon PCK1 depletion, it was hypothesized that PCK1 inhibition may represent a potential therapeutic strategy for impairing CRC metastatic progression. In vivo proof-of-principle experiments were performed in two independent CRC cell lines with a PCK1-inhibitor, 3-mercaptopicolinic acid (3-MPA) (N. W. DiTullio, et al. Biochem J 138, 387-394 (1974)). […]

LS174T cells [7] = assay: 3-Mercaptopicolinic acid in vitro growth assay; assay type: cell-based, human; details: 24-hour exposure to 1 mM 3 MPA in media, terminated on day 5
Procedure: 3-Mercaptopicolinic Acid In Vitro Growth Assay
LS174T cells were seeded in 6-well plates. On day 1, the media was replaced with either control media or media supplemented with 1 mM 3 MPA. On day 2, all the media was replaced with control media. The experiment was terminated on day 5.
2×10^4 LS174T cells were seeded in triplicate. On day 1, the media was replaced with either control media or media supplemented with 1 mM 3 MPA. On day 2, all the media was replaced with control media. The experiment was terminated on day 5.

LS174T cells [8] = assay: Subcutaneous tumor growth of 3-MPA pre-treated LS174T cells; assay type: in vivo, mouse; details: pre-treatment of LS174T cells with 3-MPA
LS174T cells [9] = assay: Oral gavage of 3-MPA, LS174T liver colonization model; assay type: in vivo, mouse; details: oral gavage 200 mg/kg prior to cell injection and on day one
Procedure: as §1
Chow was removed from cages four hours prior to injection of LS174T cells. Gavage with either 3-MPA (200 mg/kg in aqueous solution) or placebo was performed one hour prior to the injection of LS174T cells. 1×10^6 LS174T cells were injected into the portal systemic circulation as described in the Animals section above. Chow was returned to cages after injection. On day 1, chow was removed from cages; 3-MPA or placebo was administered via gavage four hours post-chow removal. […]

Cc1oncc1C(=O)Nc1ccc(C(F)(F)F)cc1 [leflunomide]
CRC growth in the context of hypoxia (CRC cells [1]; hypoxia (0.5% oxygen)): significantly impaired | impairment of proliferation, hypoxia versus normoxia (CRC cells [1]): impaired proliferation significantly more in the context of hypoxia than under normoxia | impairment of proliferation, hypoxia versus normoxia (CRC cells [1]; listed as Leflunomide): more significant under hypoxia than normoxia | primary tumor growth [2]: only modestly impacted | reduction in CRC liver metastatic colonization (Lvm3b cells [3]; 7.5 mg/kg body weight intraperitoneally every day, athymic nude mice, versus DMSO): ~90 fold | liver metastatic colonization of Lvm3b cells (luciferase bioluminescence) (Lvm3b cells [3]; 7.5 mg/kg from day 1, n=4, p<0.0001, Student's t-test): inhibited liver metastatic colonization | survival (Kaplan-Meier) (Lvm3b cells [3]; 7.5 mg/kg, versus control mice, p=0.006): significantly longer survival

N=C(N)NCCC(=O)O [β-GPA, beta-guanidinopropionic acid]
solubility in organic solvents (Solubility of β-GPA; organic solvents): low solubility | solubility (Solubility of β-GPA; water): > 50 mg/mL

O=c1[nH]cc(F)c(=O)[nH]1 [5-FU, 5-fluorouracil]
resistance of cells to the drug (Lvm3b cells [4]): highly resistant

O=c1ccn([C@@H]2O[C@H](CO)[C@@H](O)[C@H]2O)c(=O)[nH]1 [uridine]
rescue of leflunomide-impaired growth upon hypoxia (CRC cells [1]; uridine supplementation, hypoxia, leflunomide treatment): rescued | rescue of leflunomide-induced tumor growth reduction (HS746T cells): rescued | rescue of leflunomide induced tumor growth suppression (GAS HI tumor): rescued | rescue of hypoxic growth defect upon PCK1 depletion (CRC cells [5]): rescued the hypoxic growth defect

O=C(O)c1ncccc1S [3-MPA, 3-mercaptopicolinic acid]
mCRC liver colonization in vivo (CRC cells [6]): significantly reduced | cell growth in vitro (LS174T cells [7]): did not alter cell proliferation in vitro | cell growth in vitro (LS174T cells [7]; listed as 3 MPA): does not alter | subcutaneous tumor growth (LS174T cells [8]): did not, however, alter subcutaneous tumor growth | colorectal cancer liver colonization (LS174T cells [9]): decreased colorectal cancer liver colonization
